What all share (format): cell-based
One test deals with OR28/OR7 (Anopheles gambiae, UniProt A0A1S4GFY3+Q7QCC7). Description: Ca2+-imaging of stable HEK293T cell line OR28/OR7. As to conditions: for inhibition at 4 µM: HEK-293T, compound applied at 4 μM, read-out: Percent Inhibition OR28 OR7; for IC50: Table B, read-out: IC50 OR28. In short, it runs like this:
(§1)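 HEK293T stable lines (OR+OR7 co-receptor; TRPM8 single). Ca-4 dye 1.5 hr RT, dark. Compounds ([…] DMSO stock) spiked into odorant plates in HBSS; last two columns DMSO only.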

In a further test the target is T1, Or47a/Or83b (Drosophila melanogaster, UniProt P81921+Q9VNB5).
T1 construct: Full-length cDNAs for mosquito (Anopheles gambiae) odorant receptor (OR1, OR2, OR7, OR8, OR28), and fly (Drosophila melanogaster) odorant receptor (Or47a, Or83b); expressed in transfected cells
T1 sequence (P81921 1-385): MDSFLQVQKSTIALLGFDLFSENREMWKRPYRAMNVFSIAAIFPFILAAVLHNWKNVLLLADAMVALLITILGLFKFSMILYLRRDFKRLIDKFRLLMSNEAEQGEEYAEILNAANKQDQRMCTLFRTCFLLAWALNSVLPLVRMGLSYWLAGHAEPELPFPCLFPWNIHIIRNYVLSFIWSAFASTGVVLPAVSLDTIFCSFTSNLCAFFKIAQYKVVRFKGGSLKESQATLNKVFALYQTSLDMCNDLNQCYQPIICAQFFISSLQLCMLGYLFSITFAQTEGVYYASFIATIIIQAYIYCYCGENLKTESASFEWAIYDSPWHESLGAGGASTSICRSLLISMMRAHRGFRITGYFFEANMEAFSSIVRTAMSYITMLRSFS
T1 sequence (Q9VNB5 1-486): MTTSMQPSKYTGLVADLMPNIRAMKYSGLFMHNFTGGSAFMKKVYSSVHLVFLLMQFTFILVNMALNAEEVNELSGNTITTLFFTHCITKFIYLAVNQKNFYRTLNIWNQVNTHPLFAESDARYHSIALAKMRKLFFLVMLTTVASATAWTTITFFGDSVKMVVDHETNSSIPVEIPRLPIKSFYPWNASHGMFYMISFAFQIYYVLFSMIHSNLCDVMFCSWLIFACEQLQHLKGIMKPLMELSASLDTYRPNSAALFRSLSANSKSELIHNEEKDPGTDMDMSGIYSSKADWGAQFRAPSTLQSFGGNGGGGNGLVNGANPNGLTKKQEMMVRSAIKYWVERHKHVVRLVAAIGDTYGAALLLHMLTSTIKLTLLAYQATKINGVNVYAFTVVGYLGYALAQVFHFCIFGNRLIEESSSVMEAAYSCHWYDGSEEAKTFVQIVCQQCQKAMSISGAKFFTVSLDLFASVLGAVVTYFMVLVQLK
Description: Ca2+-imaging of stable Flip-In T-Rex cell line Or47a/Or83b. As to conditions: for inhibition at 4 µM: compound applied at 4 μM, read-out: Percent Inhibition OR47a OR83b; for IC50: Table B, read-out: IC50 OR47a. In short, it runs like this:
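Calcium responses were read on an FDSS6000 (485 nm excitation, 525 nm emission) after Ca-4 loading for 1.5 h at room temperature. Cells were tetracycline-induced Flp-In T-REx lines stably carrying fly Or47a/Or83b or mouse 5HT3, plated 2 days ahead; compounds were co-delivered in HBSS odorant solution.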

Another test concerns the target T2, TRP channel (TRPM8) (Mus musculus, UniProt Q8R4D5).
T2 construct: Full-length cDNAs for mosquito (Anopheles gambiae) odorant receptor (OR1, OR2, OR7, OR8, OR28), and fly (Drosophila melanogaster) odorant receptor (Or47a, Or83b), mouse TRP channel (TRPM8); expressed in transfected cells
Description: Ca2+-imaging of stable HEK293T cell line TRPM8. As to conditions: HEK-293T; compound applied at 4 μM; read-out: Percent Inhibition TRPM8. Put shortly: as §1

T2 sequence (Q8R4D5 whole entry): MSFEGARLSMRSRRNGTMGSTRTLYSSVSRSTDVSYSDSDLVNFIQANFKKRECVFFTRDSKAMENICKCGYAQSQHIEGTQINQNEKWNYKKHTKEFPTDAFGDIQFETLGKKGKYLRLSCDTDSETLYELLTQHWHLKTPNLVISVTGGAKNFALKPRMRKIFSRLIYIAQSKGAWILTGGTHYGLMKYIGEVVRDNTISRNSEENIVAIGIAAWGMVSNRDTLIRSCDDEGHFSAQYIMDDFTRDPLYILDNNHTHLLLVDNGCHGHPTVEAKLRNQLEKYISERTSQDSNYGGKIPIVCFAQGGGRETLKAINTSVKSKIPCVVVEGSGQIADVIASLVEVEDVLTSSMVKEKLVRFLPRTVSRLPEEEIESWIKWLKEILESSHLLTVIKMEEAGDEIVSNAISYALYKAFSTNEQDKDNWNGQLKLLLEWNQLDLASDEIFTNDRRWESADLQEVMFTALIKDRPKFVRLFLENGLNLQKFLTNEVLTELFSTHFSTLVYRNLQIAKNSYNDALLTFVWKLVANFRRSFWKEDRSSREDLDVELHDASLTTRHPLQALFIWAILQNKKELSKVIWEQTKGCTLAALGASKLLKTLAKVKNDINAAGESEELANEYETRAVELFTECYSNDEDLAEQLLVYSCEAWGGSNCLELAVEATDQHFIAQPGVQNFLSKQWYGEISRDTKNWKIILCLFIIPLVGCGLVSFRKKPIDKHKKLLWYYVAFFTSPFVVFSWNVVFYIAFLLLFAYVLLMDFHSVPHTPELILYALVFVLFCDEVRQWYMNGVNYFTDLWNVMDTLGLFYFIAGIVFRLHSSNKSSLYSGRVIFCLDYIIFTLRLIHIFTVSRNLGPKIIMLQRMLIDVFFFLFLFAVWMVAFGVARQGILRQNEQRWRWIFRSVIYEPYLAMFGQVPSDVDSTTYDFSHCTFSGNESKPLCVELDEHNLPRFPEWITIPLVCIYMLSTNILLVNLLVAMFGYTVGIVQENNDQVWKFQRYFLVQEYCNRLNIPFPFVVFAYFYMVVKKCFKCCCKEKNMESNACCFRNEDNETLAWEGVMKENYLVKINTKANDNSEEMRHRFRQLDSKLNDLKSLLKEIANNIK
OR28/OR7, sequence (A0A1S4GFY3 entry or part of it): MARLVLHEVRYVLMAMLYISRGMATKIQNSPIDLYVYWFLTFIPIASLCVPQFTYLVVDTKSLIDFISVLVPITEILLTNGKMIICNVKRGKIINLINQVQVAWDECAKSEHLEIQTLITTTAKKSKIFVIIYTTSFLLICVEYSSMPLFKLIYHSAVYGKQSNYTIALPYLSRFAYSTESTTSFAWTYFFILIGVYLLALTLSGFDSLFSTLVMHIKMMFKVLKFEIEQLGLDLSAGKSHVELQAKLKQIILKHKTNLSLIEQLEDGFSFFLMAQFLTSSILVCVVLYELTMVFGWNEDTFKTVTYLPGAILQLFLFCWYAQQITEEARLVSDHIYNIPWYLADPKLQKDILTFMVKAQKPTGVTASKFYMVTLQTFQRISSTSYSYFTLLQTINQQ
OR28/OR7, sequence (Q7QCC7 whole entry): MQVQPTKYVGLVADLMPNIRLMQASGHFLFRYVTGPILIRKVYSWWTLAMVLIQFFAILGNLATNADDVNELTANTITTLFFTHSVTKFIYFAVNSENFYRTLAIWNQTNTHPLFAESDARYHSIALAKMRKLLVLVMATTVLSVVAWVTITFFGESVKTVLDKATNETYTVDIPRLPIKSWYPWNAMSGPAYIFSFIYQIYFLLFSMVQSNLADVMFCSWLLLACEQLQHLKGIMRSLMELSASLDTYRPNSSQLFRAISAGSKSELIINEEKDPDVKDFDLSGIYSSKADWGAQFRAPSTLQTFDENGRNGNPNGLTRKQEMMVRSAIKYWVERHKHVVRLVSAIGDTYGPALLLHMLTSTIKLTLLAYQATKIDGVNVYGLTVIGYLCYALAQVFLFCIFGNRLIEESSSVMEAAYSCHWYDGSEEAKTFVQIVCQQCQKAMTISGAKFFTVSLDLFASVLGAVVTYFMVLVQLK

As for `COCCNC(=O)c1ccc(CSc2nnc(-c3ccc(C)cc3)n2-c2ccccc2C)cc1` [RU-0053556], the results for the inhibition at 4 µM on OR28/OR7, at Or47a/Or83b and at TRP channel (TRPM8) were greater than 75%, 26 to 50% and 26 to 50%, respectively. At OR28/OR7, the IC50 fell in the range of 100 to 1000 nM.

`CCN(CC)c1onc(-c2ccc(F)cc2)c1CN(CCCOC)C(=O)c1ccc2c(c1)OCO2` [RU-0036983]: the inhibition at 4 µM at OR28/OR7 is greater than 75%; on Or47a/Or83b, 51 to 74%; at TRP channel (TRPM8) it was 26 to 50%. The results for the 50% inhibitory concentration (IC50) on OR28/OR7 and at Or47a/Or83b were less than 100 nM and greater than 1000 nM, respectively.

Turning to `CCNc1nc(NC(C)C)nc(N(C#N)Cc2ccccc2)n1` [RU-0015806], the inhibition at 4 µM was greater than 75% at OR28/OR7, 51 to 74% at Or47a/Or83b and 26 to 50% at TRP channel (TRPM8). The half-inhibitory concentration (IC50) at OR28/OR7 and on Or47a/Or83b was less than 100 nM in each case.

Consider `C=CCN(Cc1nccn1Cc1ccccc1F)C(=O)c1cccc(F)c1` [RU-0058232], for which the results for the inhibition at 4 µM on OR28/OR7, at Or47a/Or83b and on TRP channel (TRPM8) were greater than 75%, 26 to 50% and 26 to 50%, respectively. The IC50 on OR28/OR7 was less than 100 nM.

The term inhibition denotes the drop in the measured response relative to a control, in per cent. What is called IC50 is the concentration needed to halve the response being measured.

(Values after patent US20130324522A1, “INSECT ODORANT RECEPTOR ANTAGONISTS” (THE ROCKEFELLER UNIVERSITY, priority 2010, published 2013).)
